Point of comparison: `CNC1(COc2cnc(Cl)c(-c3ccc(C(N)=O)cc3)c2)CC1.Cl`, melting point 130 °C. Against it:
- CNC1(CNc2cnc(Cl)c(-c3cccnc3)c2)CC1.Cl.Cl.Cl — higher, 180 to 185 °C
- CNC1(CNc2cnc(Cl)c(-c3cccc(C(=O)O)c3)c2)CC1.Cl.Cl — higher, 140 to 145 °C
- CNC1(CNc2cnc(Cl)c(-c3ccc(C(=O)O)cc3)c2)CC1.Cl.Cl — higher, 175 to 182 °C
- CNC1(CNc2cnc(Cl)c(-c3ccc(N)cc3)c2)CC1.Cl.Cl — higher, 190 to 196 °C
- CNC1(CN(C)c2cnc(Cl)c(-c3ccc(C(=O)O)cc3)c2)CC1.Cl.Cl — higher, 138 to 145 °C
- CNC1(CN(C)c2cnc(Cl)c(-c3ccncc3)c2)CC1.Cl.Cl — lower, 110 to 120 °C
- CNC1(CNc2cnc(C)c(-c3ccc(C(=O)O)cc3)c2)CC1.Cl.Cl — higher, 241 to 245 °C
- CNC1(CNc2cnc(C)c(-c3ccncc3)c2)CC1.Cl.Cl.Cl — higher, 240 to 248 °C
- CNC1(CNc2cnc(C)c(-c3ccc(N)cc3)c2)CC1.Cl.Cl.Cl — higher, 190 to 200 °C
- CNC1(CN(C)c2cnc(C)c(-c3ccncc3)c2)CC1.Cl.Cl.Cl — higher, 182 to 187 °C
- CNC1(CN(C)c2cnc(C)c(-c3ccc(N)cc3)c2)CC1.Cl.Cl.Cl — higher, 235 to 240 °C
- Cl.NCC1(COc2cnc(Cl)c(-c3ccc([N+](=O)[O-])cc3)c2)CC1 — higher, 145 to 150 °C
- CNC1(COc2cnc(Cl)c(-c3ccc(CO)cc3)c2)CC1.Cl.Cl — higher, 142 to 146 °C
- Cc1ncc(OCC2(CN)CC2)cc1-c1ccc(Cl)cc1.Cl.Cl — higher, 194 to 199 °C
- Cc1ncc(OCC2(CN)CC2)cc1-c1cccc(Cl)c1.Cl.Cl — higher, 223 to 227 °C
- CNC1(COc2cnc(C)c(-c3cccc(C#N)c3)c2)CC1.Cl.Cl — higher, 238 to 242 °C
- CNC1(COc2cnc(C)c(-c3ccc(C#N)cc3)c2)CC1.Cl.Cl — higher, 220 to 224 °C
- CNC1(COc2cncc(-c3cccc(C#N)c3)c2)CC1.Cl.Cl — lower, 110 to 120 °C
- Cl.NCC1(COc2cnc(F)c(-c3ccc(Cl)cc3)c2)CC1 — lower, 55 to 60 °C
- Cl.NCC1(COc2cnc(F)c(-c3cccc(Cl)c3)c2)CC1 — not separable, 126 to 130 °C
- CNC1(COc2cnc(F)c(-c3ccc(C#N)cc3)c2)CC1.Cl — lower, 90 to 105 °C
- CNC1(COc2cnc(F)c(-c3cccc(C#N)c3)c2)CC1.Cl — higher, 211 to 215 °C
- Cl.NCC1(COc2cnc(Cl)c(-c3cccc([N+](=O)[O-])c3)c2)CC1 — higher, 229 to 232 °C
- CNC1(COc2cnc(Cl)c(-c3ccc(SC)cc3)c2)CC1.Cl.Cl — higher, 144 to 148 °C
- COc1ccc(-c2cncc(OCC3(CN)CC3)c2)cc1.Cl.Cl — higher, 215 to 220 °C
- CCc1ccc(-c2cc(OCC3(CN)CC3)cnc2Cl)cc1.Cl.Cl — lower, 112 to 114 °C
- Cc1ccccc1-c1cc(OCC2(CN)CC2)cnc1Cl.Cl — not separable, 130 to 132 °C
- Cc1cccc(-c2cc(OCC3(CN)CC3)cnc2Cl)c1.Cl — higher, 152 to 154 °C
- Cl.NCC1(COc2cnc(Cl)c(-c3cccc(Cl)c3)c2)CC1 — higher, 182 to 184 °C
- CNC1(COc2cnc(Cl)c(-c3cccc(C#N)c3)c2)CC1.Cl — higher, 228 to 232 °C
- COc1cc(-c2cc(OCC3(CN)CC3)cnc2Cl)cc(OC)c1OC.Cl — higher, 138 to 140 °C
- Cl.NCC1(COc2cnc(Cl)c(-c3cc(C(F)(F)F)cc(C(F)(F)F)c3)c2)CC1 — higher, 182 to 188 °C
- CNC1(COc2cnc(Cl)c(-c3cc(F)ccc3F)c2)CC1.Cl — higher, 140 to 142 °C
- CNC1(COc2cnc(Cl)c(-c3cc(Cl)ccc3Cl)c2)CC1.Cl — higher, 140 to 142 °C
- CNC1(COc2cnc(Cl)c(-c3cc(Cl)cc(Cl)c3)c2)CC1.Cl — higher, 186 to 188 °C
- Cl.NCC1(COc2cnc(Cl)c(-c3c(Cl)cccc3Cl)c2)CC1 — higher, 182 to 186 °C
- CNC1(COc2cnc(Cl)c(-c3cccc(NC(C)=O)c3)c2)CC1.Cl — higher, 220 to 222 °C
- Cc1cccc(-c2cncc(OCC3(CN)CC3)c2)c1.Cl.Cl — higher, 215 to 218 °C
- Cl.Cl.NCC1(COc2cncc(-c3cccc([N+](=O)[O-])c3)c2)CC1 — higher, 220 to 225 °C
- Cl.Cl.NCC1(COc2cncc(-c3cccc(Cl)c3)c2)CC1 — higher, 230 to 235 °C
- Cl.Cl.NCC1(COc2cncc(-c3cccc(F)c3)c2)CC1 — higher, 210 to 214 °C
- CCc1ccc(-c2cncc(OCC3(CN)CC3)c2)cc1.Cl.Cl — higher, 197 to 200 °C
- CNC1(COc2cncc(-c3ccccc3C)c2)CC1.Cl.Cl — higher, 192 to 196 °C
- Cl.Cl.NCC1(COc2cncc(-c3cc(F)ccc3F)c2)CC1 — higher, 188 to 192 °C
- CNC1(COc2cncc(-c3cc(OC)c(OC)c(OC)c3)c2)CC1.Cl — lower, 116 to 120 °C
- Cl.Cl.NCC1(COc2cncc(-c3cc(Cl)ccc3Cl)c2)CC1 — higher, 195 to 200 °C
- CNC1(COc2cncc(-c3cc(C(F)(F)F)cc(C(F)(F)F)c3)c2)CC1.Cl — higher, 132 to 136 °C
- Cl.Cl.Cl.NCC1(COc2cncc(-c3cccc(N)c3)c2)CC1 — higher, 185 to 190 °C
- Cl.Cl.NCC1(COc2cnc(F)c(-c3cccc(N)c3)c2)CC1 — higher, 158 to 161 °C
- Cc1ncc(OCC2(CN)CC2)cc1-c1cccc(N)c1.Cl.Cl.Cl — higher, 222 to 228 °C
- CCOC(=O)c1ccc(-c2cc(OCC3(NC)CC3)cnc2Cl)cc1.Cl.Cl — higher, 146 to 148 °C
- COc1ccc(-c2cc(OCC3(N)CC3)cnc2Cl)cc1.Cl.Cl — higher, 207 to 211 °C
- COc1ccc(-c2cc(OCC3(N(C)C)CC3)cnc2Cl)cc1.Cl — higher, 208 to 210 °C
- Cl.Cl.NCC1(COc2cncc(-c3ccc(Cl)cc3)c2)CC1 — higher, 208 to 213 °C
- CNC1(COc2cnc(F)c(-c3ccc(C(=O)O)cc3)c2)CC1.Cl.Cl — higher, 211 to 215 °C
- Cl.Cl.NCC1(COc2cnc(Cl)c(-c3cccnc3)c2)CC1 — higher, 210 to 215 °C
- Cl.Cl.NCC1(COc2cnc(Cl)c(-c3ccncc3)c2)CC1 — not separable, 125 to 130 °C
- Cl.Cl.NCC1(COc2cnc(Cl)c(-c3ccc(N)cc3)c2)CC1 — higher, 240 to 243 °C
- Cl.Cl.NCC1(COc2cnc(F)c(-c3ccc(N)cc3)c2)CC1 — higher, 225 to 230 °C
- CNC1(COc2cnc(Cl)c(-c3ccc(O)cc3)c2)CC1.Cl.Cl — higher, 216 to 220 °C
- CNC1(COc2cnc(Cl)c(-c3ccc(NC(=O)CCl)cc3)c2)CC1.Cl — higher, 140 to 144 °C
- CNC1(COc2cnc(Cl)c(-c3ccc(N=C=S)cc3)c2)CC1.Cl — higher, 172 to 176 °C
- Cl.Cl.NCC1(COc2cnc(Cl)c(-c3ccccc3)c2)CC1 — not separable, 130 to 135 °C
- Cl.Cl.NCC1(COc2cnc(-c3ccc(Cl)cc3)c(-c3ccc(Cl)cc3)c2)CC1 — higher, 220 to 225 °C
- Cl.Cl.NCC1(COc2cnc(-c3ccc([N+](=O)[O-])cc3)c(-c3ccc([N+](=O)[O-])cc3)c2)CC1 — higher, 215 to 220 °C
- CNC1(COc2cnc(-c3ccc(C#N)cc3)c(-c3ccc(C#N)cc3)c2)CC1.Cl.Cl — higher, 205 to 208 °C
- Cc1ncc(OCC2(CN)CC2)cc1-c1ccc(N)cc1.Cl.Cl.Cl — higher, 245 to 250 °C
- CNC1(CNc2cncc(-c3cccc(C(=O)O)c3)c2)CC1.Cl.Cl — higher, 248 to 250 °C

Source: patent US20100317698A1, “Polysubstituted Pyridinylaminoalkylene- and Pyridinyloxyalkylene-Cyclopropanamine Compounds, a Process for Their Preparation and Pharmaceutical Compositions Containing Them” (LES LABORATOIRES SERVIER, priority 2006, published 2010)
